Reference: patent US20050197350A1, “Novel quinoline, tetrahydroquinazoline, and pyrimidine derivatives and methods of treatment related to the use thereof” (TAISHO PHARMACEUTICAL CO., LTD., priority 2003, published 2005)

The compounds below were run on MCH receptors (assay: MCH receptor activity class (method not given)). Conditions: class by percent of control at 10^-7 M or IC50.
`CSc1sc(C(=O)N[C@H]2CC[C@@H](Nc3nccc(N(C)C)n3)CC2)c(I)c1S(=O)(=O)C(C)C` [compound 905] was tested, and the class was 2 (Class 2: The value of percent of control at 10^−7 M was from 40% to 60% or the value of IC′50 was from 50 nM to 200 nM.). `CN(C)c1ccnc(N[C@H]2CC[C@@H](NC(=O)c3csc([N+](=O)[O-])c3)CC2)n1` [compound 906, N-(cis-4-{[4-(dimethylamino)pyrimidin-2-yl]amino}cyclohexyl)-5-nitrothiophene-3-carboxamide] was tested, and the class was 1 (Class 1: The value of percent of control at 10^−7 M was less than 40% or the value of IC50 was less than 50 nM.). In the case of `CN(C)c1ccnc(N[C@H]2CC[C@@H](NC(=O)c3cc([N+](=O)[O-])cn3C)CC2)n1` [compound 907, N-(cis-4-{[4-(dimethylamino)pyrimidin-2-yl]amino}cyclohexyl)-1-methyl-4-nitro-1H-pyrrole-2-carboxamide], the class is reported as 1 (Class 1: The value of percent of control at 10^−7 M was less than 40% or the value of IC50 was less than 50 nM.). With `CN(C)c1ccnc(N[C@H]2CC[C@@H](NC(=O)c3cn(S(=O)(=O)c4ccccc4)c4ccccc34)CC2)n1` [compound 908] the class was 3 (Class 3 The value of percent of control at 10^−7 M was more than 60% or the value of IC50 was more than 200 nM.). In the case of `CN(C)c1ccnc(N[C@H]2CC[C@@H](NC(=O)c3ccc([N+](=O)[O-])cc3)CC2)n1` [compound 909, N-(cis-4-{[4-(dimethylamino)pyrimidin-2-yl]amino}cyclohexyl)-4-nitrobenzamide], the class is reported as 2 (Class 2: The value of percent of control at 10^−7 M was from 40% to 60% or the value of IC′50 was from 50 nM to 200 nM.). With `COc1cc([N+](=O)[O-])ccc1C(=O)N[C@H]1CC[C@@H](Nc2nccc(N(C)C)n2)CC1` [compound 910] the class was 3 (Class 3 The value of percent of control at 10^−7 M was more than 60% or the value of IC50 was more than 200 nM.). In the case of `CN(C)c1ccnc(N[C@H]2CC[C@@H](NC(=O)c3ccc(C(F)(F)F)c(F)c3)CC2)n1` [compound 911], the class is reported as 3 (Class 3 The value of percent of control at 10^−7 M was more than 60% or the value of IC50 was more than 200 nM.). For `CN(C)c1ccnc(N[C@H]2CC[C@@H](NC(=O)c3ccc([N+](=O)[O-])cc3F)CC2)n1` [compound 912], the class was 3 (Class 3 The value of percent of control at 10^−7 M was more than 60% or the value of IC50 was more than 200 nM.). In the case of `Cc1cc(C(=O)N[C@H]2CC[C@@H](Nc3nccc(N(C)C)n3)CC2)cc(C)c1[N+](=O)[O-]` [compound 913, N-(cis-4-{[4-(dimethylamino)pyrimidin-2-yl]amino}cyclohexyl)-3,5-dimethyl-4-nitrobenzamide], the class is reported as 2 (Class 2: The value of percent of control at 10^−7 M was from 40% to 60% or the value of IC′50 was from 50 nM to 200 nM.). With `Cc1cc(C)c(C(=O)C(=O)N[C@H]2CC[C@@H](Nc3nccc(N(C)C)n3)CC2)c(C)c1` [compound 914, N-(cis-4-{[4-(dimethylamino)pyrimidin-2-yl]amino}cyclohexyl)-2-mesityl-2-oxoacetamide] the class was 2 (Class 2: The value of percent of control at 10^−7 M was from 40% to 60% or the value of IC′50 was from 50 nM to 200 nM.). For `CN(C)c1ccnc(N[C@H]2CC[C@@H](NC(=O)c3cnc4ccccc4c3)CC2)n1` [compound 915], the class was 3 (Class 3 The value of percent of control at 10^−7 M was more than 60% or the value of IC50 was more than 200 nM.). With `CN(C)c1ccnc(N[C@H]2CC[C@@H](NC(=O)c3ccc4ncsc4c3)CC2)n1` [compound 918] the class was 3 (Class 3 The value of percent of control at 10^−7 M was more than 60% or the value of IC50 was more than 200 nM.). With `CN(C)c1ccnc(N[C@H]2CC[C@@H](NC(=O)c3cc(Cl)ccc3O)CC2)n1` [compound 919] the class was 3 (Class 3 The value of percent of control at 10^−7 M was more than 60% or the value of IC50 was more than 200 nM.). In the case of `CSc1ccc(Cl)c(C(=O)N[C@H]2CC[C@@H](Nc3nccc(N(C)C)n3)CC2)c1` [compound 920], the class is reported as 3 (Class 3 The value of percent of control at 10^−7 M was more than 60% or the value of IC50 was more than 200 nM.). With `COc1cccc2cc(C(=O)N[C@H]3CC[C@@H](Nc4nccc(N(C)C)n4)CC3)oc12` [compound 921] the class was 3 (Class 3 The value of percent of control at 10^−7 M was more than 60% or the value of IC50 was more than 200 nM.). `Cc1cccc(C(=O)N[C@H]2CC[C@@H](Nc3nccc(N(C)C)n3)CC2)c1N` [compound 922] was tested, and the class was 3 (Class 3 The value of percent of control at 10^−7 M was more than 60% or the value of IC50 was more than 200 nM.). For `C=CCSc1ncccc1C(=O)N[C@H]1CC[C@@H](Nc2nccc(N(C)C)n2)CC1` [compound 923], the class was 3 (Class 3 The value of percent of control at 10^−7 M was more than 60% or the value of IC50 was more than 200 nM.). With `CN(C)c1ccnc(N[C@H]2CC[C@@H](NC(=O)c3cc(C(C)(C)C)c(O)c(C(C)(C)C)c3)CC2)n1` [compound 924] the class was 1 (Class 1: The value of percent of control at 10^−7 M was less than 40% or the value of IC50 was less than 50 nM.). `CN(C)c1ccnc(N[C@H]2CC[C@@H](CNC(=O)c3ccc(Br)s3)CC2)n1` [compound 925] was tested, and the class was 3 (Class 3 The value of percent of control at 10^−7 M was more than 60% or the value of IC50 was more than 200 nM.). With `CN(C)c1ccnc(N[C@H]2CC[C@@H](CNC(=O)Cc3c(Cl)ccc(Cl)c3Cl)CC2)n1` [compound 926, N-[(cis-4-{[4-(dimethylamino)pyrimidin-2-yl]amino}cyclohexyl)methyl]-2-(2,3,6-trichlorophenyl)acetamide] the class was 1 (Class 1: The value of percent of control at 10^−7 M was less than 40% or the value of IC50 was less than 50 nM.). In the case of `CN(C)c1ccnc(N[C@H]2CC[C@@H](CNC(=O)Cc3ccc(F)cc3Cl)CC2)n1` [compound 927], the class is reported as 3 (Class 3 The value of percent of control at 10^−7 M was more than 60% or the value of IC50 was more than 200 nM.). `CN(C)c1ccnc(N[C@H]2CC[C@@H](CNC(=O)c3ccc(-c4ccc(Cl)cc4[N+](=O)[O-])o3)CC2)n1` [compound 928] was tested, and the class was 3 (Class 3 The value of percent of control at 10^−7 M was more than 60% or the value of IC50 was more than 200 nM.). For `CN(C)c1ccnc(N[C@H]2CC[C@@H](CNC(=O)c3ccc(Cl)s3)CC2)n1` [compound 929], the class was 3 (Class 3 The value of percent of control at 10^−7 M was more than 60% or the value of IC50 was more than 200 nM.). For `CN(C)c1ccnc(N[C@H]2CC[C@@H](CNC(=O)CCc3ccccc3O)CC2)n1` [compound 931], the class was 3 (Class 3 The value of percent of control at 10^−7 M was more than 60% or the value of IC50 was more than 200 nM.). With `CN(C)c1ccnc(N[C@H]2CC[C@@H](CNC(=O)c3ccc(I)o3)CC2)n1` [compound 932, N-[(cis-4-{[4-(dimethylamino)pyrimidin-2-yl]amino}cyclohexyl)methyl]-5-iodo-2-furamide] the class was 2 (Class 2: The value of percent of control at 10^−7 M was from 40% to 60% or the value of IC′50 was from 50 nM to 200 nM.). With `COc1ccc2[nH]c(C)c(CC(=O)NC[C@H]3CC[C@@H](Nc4nccc(N(C)C)n4)CC3)c2c1` [compound 933] the class was 3 (Class 3 The value of percent of control at 10^−7 M was more than 60% or the value of IC50 was more than 200 nM.). For `CN(C)c1ccnc(N[C@H]2CC[C@@H](CNC(=O)/C=C/c3cccc([N+](=O)[O-])c3)CC2)n1` [compound 934], the class was 1 (Class 1: The value of percent of control at 10^−7 M was less than 40% or the value of IC50 was less than 50 nM.). With `CN(C)c1ccnc(N[C@H]2CC[C@@H](CNC(=O)c3ccccc3Cc3ccccc3)CC2)n1` [compound 936] the class was 2 (Class 2: The value of percent of control at 10^−7 M was from 40% to 60% or the value of IC′50 was from 50 nM to 200 nM.). For `CN(C)c1ccnc(N[C@H]2CC[C@@H](CNC(=O)C(c3ccc(Cl)cc3)c3ccc(Cl)cc3)CC2)n1` [compound 937, 2,2-bis(4-chlorophenyl)-N-[(cis-4-{[4-(dimethylamino)pyrimidin-2-yl]amino}cyclohexyl)methyl]acetamide], the class was 1 (Class 1: The value of percent of control at 10^−7 M was less than 40% or the value of IC50 was less than 50 nM.). `Cc1ccc(-c2ccc(C(=O)NC[C@H]3CC[C@@H](Nc4nccc(N(C)C)n4)CC3)o2)c([N+](=O)[O-])c1` [compound 938] was tested, and the class was 3 (Class 3 The value of percent of control at 10^−7 M was more than 60% or the value of IC50 was more than 200 nM.). In the case of `CN(C)c1ccnc(N[C@H]2CC[C@@H](CNC(=O)c3ccc([N+](=O)[O-])s3)CC2)n1` [compound 939], the class is reported as 3 (Class 3 The value of percent of control at 10^−7 M was more than 60% or the value of IC50 was more than 200 nM.). With `Cc1cc(C(=O)NC[C@H]2CC[C@@H](Nc3nccc(N(C)C)n3)CC2)ccc1[N+](=O)[O-]` [compound 940, N-[(cis-4-{[4-(dimethylamino)pyrimidin-2-yl]amino}cyclohexyl)methyl]-3-methyl-4-nitrobenzamide] the class was 1 (Class 1: The value of percent of control at 10^−7 M was less than 40% or the value of IC50 was less than 50 nM.). `COc1cc(C(=O)NC[C@H]2CC[C@@H](Nc3nccc(N(C)C)n3)CC2)ccc1[N+](=O)[O-]` [compound 941, N-[(cis-4-{[4-(dimethylamino)pyrimidin-2-yl]amino}cyclohexyl)methyl]-3-methoxy-4-nitrobenzamide] was tested, and the class was 1 (Class 1: The value of percent of control at 10^−7 M was less than 40% or the value of IC50 was less than 50 nM.). With `CN(C)c1ccnc(N[C@H]2CC[C@@H](CNC(=O)c3cn(Cc4ccccc4)c4ccccc34)CC2)n1` [compound 942] the class was 3 (Class 3 The value of percent of control at 10^−7 M was more than 60% or the value of IC50 was more than 200 nM.). For `CN(C)c1ccnc(N[C@H]2CC[C@@H](CNC(=O)CC3=CCCCC3)CC2)n1` [compound 943], the class was 3 (Class 3 The value of percent of control at 10^−7 M was more than 60% or the value of IC50 was more than 200 nM.). In the case of `CN(C)c1ccnc(N[C@H]2CC[C@@H](CNC(=O)Cc3ccccc3OC(F)(F)F)CC2)n1` [compound 945], the class is reported as 1 (Class 1: The value of percent of control at 10^−7 M was less than 40% or the value of IC50 was less than 50 nM.). In the case of `Cc1cc(C(=O)NC[C@H]2CC[C@@H](Nc3nccc(N(C)C)n3)CC2)cc(C)c1OCc1ccccc1` [compound 946], the class is reported as 3 (Class 3 The value of percent of control at 10^−7 M was more than 60% or the value of IC50 was more than 200 nM.).
